Experimental data from patent US12006330B2, “Substituted macrocyclic compounds and related methods of treatment” (Alkermes, Inc., priority 2020, dated 2024).

Key:
Format in all cases: in vitro ADME
[1] = Hepatocytes stability assay (human hepatocytes); details: both sexes, human, cryopreserved hepatocytes, cryopreserved human hepatocytes (pool of 50 mixed gender); 1 μM test compound; 1×10^6 cell/mL; 37 degrees C; read-out: CLint (μL/min/million cells)
Procedure: (§1) In vitro metabolic stability was assessed using cryopreserved hepatocytes from male Sprague Dawley rats and a pool of 50 mixed gender humans (BioIVT, Baltimore, MD). The incubation mixtures were prepared by mixing 250 μL of pre-warmed KHB (Krebs-Henseleit buffer) containing 2×10^6 cell/mL of hepatocytes with 250 μL of pre-warmed KHB buffer containing 2 μM of test compounds in a 48-well plate, giving a final concentration of 1 μM test compound (0.1% DMSO) and 1×10^6 cell/mL of hepatocytes. The reaction mixture was incubated at 37 degrees C. A 50 μL aliquot of incubation mixture was taken at time points (0, 15, 30, 60, 120 and 240 minutes) and transferred into a 96-well plate containing 300 μL ice-cold acetonitrile (containing 30 ng/mL of labetalol and 10 ng/mL of Naltrexone-d3 as internal standards) and immediately placed in ice to terminate the reaction. Samples were centrifuged, and supernatants were transferred into 96-well plates for liquid chromatography with tandem mass spectrometry (LC-MS/MS) analysis to monitor the depletion of the test compound.
(§2) Data was calculated as percent remaining by assuming zero-minute time point peak area ratio (analyte/IS) as 100% and dividing remaining time point peak area ratios by zero-minute time point peak area ratio. Data were fitted to a first-order decay model to determine half-life. From a plot of log (ln) peak area against time, the slope of the line was determined. Subsequently, half-life (T1/2) and intrinsic clearance (CLint) were calculated using the equations below: Elimination rate constant (k)=(−slope) Half-life (T1/2) min=0.693/k Intrinsic Clearance (CLint) (mL/min/million cells)=(V×0.693)/T1/2 V=incubation volume mL/number of cells The in vitro T1/2 was converted to in vitro intrinsic clearance (CLint,hep) in units of mL/min/kg using the formula shown below:
(§3) [formula] The in vitro intrinsic clearance (CLint,hep) was scaled to in vivo hepatic clearance (CL,hep) using the following equation which was adapted from a well-stirred model.
(§4) [formula] where Q is the liver blood flow and fu is the fraction unbound (assumed to be unity in this case). All parameters used in the calculation are shown below (Table 4).
(§5) The extraction ratio (ER) was calculated by dividing the hepatic clearance of a compound to the liver blood flow. The data reported in Table 5 were obtained according to the human hepatocytes stability assay described above.

human hepatocytes = assay: Hepatocytes stability assay (human hepatocytes); details: human hepatocytes; scaled hepatic clearance divided by liver blood flow (well-stirred model, fu assumed unity)
Procedure: as §1, §2, §3, §4, §5

MDR1 = assay: MDCK-MDR1 permeability assay; details: dog, MDCK-MDR1, MDCK-MDR1 cells; for efflux ratio at 2 h, 3 μM: Papp B→A divided by Papp A→B, read-out: Efflux ratio (ER); for Papp A→B at 2 h, 3 μM: test compound 3 μM, 2 hours at 37 degrees C, apical to basolateral
Procedure: The bidirectional permeability (Apical to Basal and Basal to Apical directions) of test compounds in MDCK-MIDR1 cells were evaluated using MDCK-MIDR1 cells seeded in Solvo PreadyPort™ MDCK 96-well plate. Once the plate was received from ReadyCell (Barcelona, Spain), it was treated as per PreadyPort™ user's manual.
For the Apical to Basolateral (A→B) permeability, 80 μL of test compound (3 μM) co-dosed with LY (Lucifer Yellow) (100 μM) in HBSS (Hank's Balanced Salt Solution) assay buffer was added to the donor side (A) while 250 μL of HBSS buffer was added to the receiver side (B). For the Basolateral to Apical (B→A) permeability, 255 μL of test compound (3 μM) in HBSS assay buffer was added to the donor side (B) while 75 μL of HBSS buffer containing LY (100 μM) was added to the receiver side (A).
The plate was placed in an incubator set at 37 degrees C. After 10 minutes of pre-warming, 5 μL aliquot was taken from donor compartment and set aside as the dosing solution. The MDCK-MDR1 incubation plate was placed back into the incubator for 2 hours of incubation at 37 degrees C. After 2 hours of incubation, 25 μL and 5 μL aliquots were removed from the receiver and donor sides, respectively. To the 5 μL aliquots taken from the donor sides (before and after a 2-hour incubation) were diluted with 20 μL of the HBSS buffer. All samples were mixed with 150 μL with acetonitrile containing internal standard (IS) and 200 μL water, and analyzed by LC-MS/MS.
The apparent permeability (Papp) was calculated using the following formula: Papp=dQ/dt×1/A×C0 where: • dQ/dt: amount of translocated material over incubation time (nmol/s) • A: area of insert (0.14 cm^2 for PreadyPort™ MDR1-96) • C0: initial concentration of product applied in apical (A→B) or basal (B→A) compartment (nmol/mL)
The efflux ratio (ER) was measured by dividing the Papp (basolateral to apical direction) by Papp (apical to basolateral direction). It is a general measure of the involvement of active processes. An ER>2 is considered positive for active transport.
Percent recovery was measured using the following equation:
[formula] where: • VR: Volume of the receiver compartment (mL) • VD: Volume of the donor compartment (mL) • CN: Concentration of dosing solution (μM) collected after 10 minutes of incubation • CR^final: Receiver concentration at the end of the incubation (μM) • CD^final: Donor concentration at the end of the incubation (μM)
The data reported in Table 3 were obtained according to the MDCK-MDR1 permeability assay described above.

Row | hepatocyte CLint at 1 μM [1] | Extraction Ratio (ER) (human hepatocytes) | efflux ratio at 2 h, 3 μM (MDR1) | Papp A→B at 2 h, 3 μM (MDR1) | Structure (SMILES)
1 | 69 µL/min/1e6 cells | 0.91 | 3.3 | 1.7 ×10⁻⁶ cm/s | CC(C)(C)S(=O)(=O)N[C@H]1CCCN2CCOc3ccccc3[C@H]3CC[C@H](CC3)OCC12 (stereo in doubt) [Compound 56]
2 | 65 µL/min/1e6 cells | 0.91 | 6 | 1.7 ×10⁻⁶ cm/s | O=S(=O)(N[C@H]1CCCN2CCOc3ccccc3[C@H]3CC[C@H](CC3)OCC12)C1CCC1 (stereo in doubt) [Compound 57]
3 | 55 µL/min/1e6 cells | 0.89 | 7.5 | 1.4 ×10⁻⁶ cm/s | CC1(S(=O)(=O)N[C@H]2CCCN3CCOc4ccccc4[C@H]4CC[C@H](CC4)OCC23)CC1 (stereo in doubt) [Compound 58]
4 | 62 µL/min/1e6 cells | 0.90 | 5.4 | 1.67 ×10⁻⁶ cm/s | O=S(=O)(CC1CC1)N[C@H]1CCCN2CCOc3ccccc3[C@H]3CC[C@H](CC3)OCC12 (stereo in doubt) [Compound 59]
5 | 21 µL/min/1e6 cells | 0.76 | > 100 | 0.092 ×10⁻⁶ cm/s | Cc1ccnc2c1[C@H]1CC[C@H](CC1)OCC1[C@@H](NS(=O)(=O)C3CC3)CCCN1C(=O)CO2 (stereo in doubt) [Compound 62]
6 | 44 µL/min/1e6 cells | 0.87 | 1.4 | 7.5 ×10⁻⁶ cm/s | O=S(=O)(N[C@H]1CCCN2CCOc3ncccc3[C@H]3CC[C@H](CC3)OCC12)C1CC1 (stereo in doubt) [Compound 63]
7 | 46 µL/min/1e6 cells | 0.87 | 1.2 | 12 ×10⁻⁶ cm/s | CC(C)S(=O)(=O)N[C@H]1CCCN2CCOc3ncccc3[C@H]3CC[C@H](CC3)OCC12 (stereo in doubt) [Compound 64]
8 | 2.5 µL/min/1e6 cells | 0.27 | 63 | < 0.036 ×10⁻⁶ cm/s | O=C1COc2nnccc2[C@H]2CC[C@H](CC2)OCC2[C@@H](NS(=O)(=O)C3CC3)CCCN12 (stereo in doubt) [Compound 67]
9 | 3.4 µL/min/1e6 cells | 0.34 | > 100 | < 0.041 ×10⁻⁶ cm/s | Cc1ncnc2c1[C@H]1CC[C@H](CC1)OCC1[C@@H](NS(=O)(=O)C(C)C)CCCN1C(=O)CO2 (stereo in doubt) [Compound 69]
10 | 45 µL/min/1e6 cells | 0.87 | 4.2 | 3.7 ×10⁻⁶ cm/s | Cc1cccc2c1[C@H]1CC[C@H](CC1)OCC1[C@@H](NS(=O)(=O)C3CC3)CCN1C(=O)CO2 (stereo in doubt) [Compound 70]
11 | 15 µL/min/1e6 cells | 0.69 | 41 | 0.62 ×10⁻⁶ cm/s | O=C1COc2cccc(F)c2[C@H]2CC[C@H](CC2)OCC2[C@@H](NS(=O)(=O)C3CC3)CCCN12 (stereo in doubt) [Compound 74]
12 | 11 µL/min/1e6 cells | 0.61 | 65 | 0.3 ×10⁻⁶ cm/s | Cc1c(Cl)ccc2c1[C@H]1CC[C@H](CC1)OCC1[C@@H](NS(=O)(=O)C3CC3)CCCN1C(=O)CO2 (stereo in doubt) [Compound 75]
13 | 9.8 µL/min/1e6 cells | 0.59 | 28 | 0.57 ×10⁻⁶ cm/s | Cc1ccc2c(c1C)[C@H]1CC[C@H](CC1)OCC1[C@@H](NS(=O)(=O)C(C)C)CCCN1C(=O)CO2 (stereo in doubt) [Compound 76]
14 | 12 µL/min/1e6 cells | 0.63 | 27 | 0.79 ×10⁻⁶ cm/s | Cc1ccc2c(c1C)[C@H]1CC[C@H](CC1)OCC1[C@@H](NS(=O)(=O)C3CC3)CCCN1C(=O)CO2 (stereo in doubt) [Compound 77]
15 | 7.2 µL/min/1e6 cells | 0.52 | 74 | 0.41 ×10⁻⁶ cm/s | Cc1ccc2c(c1C)[C@H]1CC[C@H](CC1)OCC1[C@@H](NS(C)(=O)=O)CCCN1C(=O)CO2 (stereo in doubt) [Compound 78]
16 | 46 µL/min/1e6 cells | 0.87 | 3.8 | 5.7 ×10⁻⁶ cm/s | Cc1cccc2c1[C@H]1CC[C@H](CC1)OCC1[C@@H](NS(=O)(=O)C(C)C)CCN1C(=O)CO2 (stereo in doubt) [Compound 79]
17 | 11 µL/min/1e6 cells | 0.63 | 51 | 0.79 ×10⁻⁶ cm/s | O=C1COc2ccccc2[C@H]2CC[C@H](CC2)OCC2[C@@H](NS(=O)(=O)C3COC3)CCCN12 (stereo in doubt) [Compound 80]
18 | < 1.9 µL/min/1e6 cells | <0.22 | 59 | 0.58 ×10⁻⁶ cm/s | Cc1ncnc2c1[C@H]1CC[C@H](CC1)OCC1[C@@H](NS(C)(=O)=O)CCN1C(=O)CO2 (stereo in doubt) [Compound 82]
19 | 2.6 µL/min/1e6 cells | 0.28 | 46 | 0.85 ×10⁻⁶ cm/s | Cc1ncnc2c1[C@H]1CC[C@H](CC1)OCC1[C@@H](NS(=O)(=O)C3CC3)CCN1C(=O)CO2 (stereo in doubt) [Compound 83]
20 | 4.1 µL/min/1e6 cells | 0.38 | 24 | 1.9 ×10⁻⁶ cm/s | Cc1ncnc2c1[C@H]1CC[C@H](CC1)OCC1[C@@H](NS(=O)(=O)C(C)C)CCN1C(=O)CO2 (stereo in doubt) [Compound 86]
21 | 6.7 µL/min/1e6 cells | 0.50 | 25 | 0.84 ×10⁻⁶ cm/s | Cc1ccnc2c1[C@H]1CC[C@H](CC1)OCC1[C@@H](NS(=O)(=O)C3COC3)CCCN1C(=O)CO2 (stereo in doubt) [Compound 88]
